{"source": "paper PMC8507260", "about": "“A2E-induced inflammation and angiogenesis in RPE cells in vitro are modulated by PPAR-α, -β/δ, -γ, and RXR antagonists and by norbixin” (Aging (Albany NY), 2021)", "key": {"VEGF": {"tested_on": "VEGF", "assay": "VEGF mRNA expression by quantitative RT-PCR in porcine RPE cells", "type": "cell-based", "experimental": "(§1) Pig eyes were obtained from a local slaughterhouse and transported to the laboratory in ice-cold Ringer solution. After removal of the anterior segment of the eye, the vitreous and neural retina was separated from the RPE and removed. The eyecup was washed twice with phosphate buffer saline (PBS), filled with trypsin (0.25% in PBS) and incubated at 37°C for 1.5 h. RPE cells were harvested by gently pipetting, centrifuged to remove trypsin and re-suspended in Dulbecco’s Modified Eagle Medium (DMEM) supplemented with 20% (v/v) foetal-calf serum (DMEM20%FCS) and 0.1% gentamycin. Cells were seeded into 60 mm diameter Petri dishes, cultured in an atmosphere of 5% CO2/95% air at 37°C, and supplied with fresh medium after 24 hours and 4 days in vitro. For experiments aimed at measuring mRNA or protein expression in RPE, cells were trypsinized after one week in culture and transferred to 24-well or 6-well plates at a density of 1.5 × 10^5 cells/cm^2 in DMEM2%FCS. Norbixin or agonists were added to the medium 24 h after seeding, and antagonists were added to the medium 24 h later. A2E treatment was performed during 19 h before cellular sample preparation. All the drugs used in these experiments were prepared as stock solutions in DMSO.\nTotal RNA was extracted using the NucleoSpin® RNA kit according to manufacturer’s instructions. RT of 500 ng of RNA was performed using the SuperScript III Reverse Transcriptase following the manufacturer’s instructions. Five ng of cDNA were amplified using the SYBR GREEN real-time PCR method. PCR primers for target genes and housekeeping gene GAPDH were designed using Primer3Plus Bioinformatic software (Table 2). The RT-PCR using the StepOne Plus (Life Technologies, Carlsbad, CA, USA) consisted of incubation at 50°C for 5 min followed by 40 cycles of 95°C for 15 s and of 60°C for 1 min. The reaction was completed by a melt curve stage at 95°C for 15 s, 60°C for 1 min, 95°C for 15 s and a final step at 60°C for 15 s. The relative mRNA expression was calculated using the comparative threshold method (Ct-method) with GAPDH for normalization. […]"}, "ERK": {"tested_on": "ERK", "assay": "ERK phosphorylation by western blot in primary porcine RPE cells", "type": "cell-based", "experimental": "as §1, with “Norbixin or agonists were added to the medium 24 h after seeding, and antagonists were added to the medium 24 h later. A2E treatment was performed during 19 h before cellular sample preparation. All the drugs used in these experiments were prepared as stock solutions in DMSO.” left out\nRPE samples were lysed in 20 mM Tris-HCl, 150 mM NaCl, 1 mM EDTA, 1% NP-40, pH 7.5 buffer containing a cocktail of protease and phosphatase inhibitors. […] The signal was developed using enhanced chemiluminescence reagents (ECL) prime detection kit, quantified by densitometry using Bio1D (Vilber Lourmat, Germany) and normalized by GAPDH levels. […]"}, "PPAR": {"tested_on": "PPAR", "assay": "Endogenous PPAR transactivation, luciferase reporter in primary porcine RPE cells", "type": "cell-based", "experimental": "as §1\n(§2) After one week in culture, cells were trypsinized and transferred to a 96-well plate at a density of 6 × 10^4 cells/cm^2 in DMEM2%FCS. The next day, cells were transfected using the Cignal Reporter Assay Kits for PPAR, RXR, AP-1 and NF-κB, according to the manufacturer’s specifications. To measure the specific activation of PPAR isoforms, cells were also co-transfected with PPAR-α, PPAR-β/δ or PPAR-γ expression vectors. Transfection was performed with Lipofectamine and Plus Reagent in serum-free medium. 3 h after the transfection, the medium was replaced and treatments with the molecules to assay were performed. Luciferase activity was measured the next day using the Dual-Luciferase Reporter Assay System. The measurements were performed with a luminometer (Infinite M1000 from Tecan, Mannedorf, Switzerland). Firefly: Renilla activity ratios were calculated for each condition and ratios from transcription factor-responsive reporter transfections were divided by ratios from negative control transfections to obtain relative luciferase unit, as described by the manufacturer. At least 3 independent transfections were performed in triplicate for each condition."}, "PPAR-β/δ": {"tested_on": "PPAR-β/δ", "assay": "Transactivation of over-expressed PPAR-β/δ, luciferase reporter in porcine RPE cells", "type": "cell-based, pig", "conditions": "for transactivation of over-expressed PPAR-β/δ by the compound alone: vs DMSO control, A2E 20 μM, NBX increasing concentrations", "experimental": "Then the effects of A2E on the endogenous PPAR transactivation in porcine RPE cells were investigated by means of a luciferase assay. […] The level of transactivation of PPAR-α, -β/δ, or -γ isoforms by A2E was determined by co-transfection of porcine RPE cells with a plasmid expressing each of the full-length PPAR isoforms and a plasmid expressing luciferase under the control of the PPAR response element. […] All usual chemicals, primers, and HX531 were from Sigma (St. Louis, MO, USA). Reagents for cell culture, transfection and quantitative RT-PCR were from Thermo Fisher Scientific (Waltham, MA, USA). RNA extraction NucleoSpin® RNA kit was from Macherey Nagel (Düren, Germany). ECL prime and PVDF membrane were from Amersham GE Healthcare (Buckinghamshire, UK). Primary antibodies against the following proteins were used: GAPDH (Santa Cruz Biotechnology, Inc, Dallas, TX, USA); pAKT, AKT, pERK and ERK (Cell Signaling, Danvers, MA, USA). Secondary antibodies were from Jackson ImmunoResearch (Cambridgeshire, UK). […] Cignal Pathway Reporter Assay Kits were from QIAGEN (Frederick, MD, USA). The Dual-Luciferase Reporter Assay System was purchased from Promega (Madison, WI, USA). pcDNA 3.1 (+)-PPARα and pcDNA 3.1 (+)-PPARβ/δ (pig sequence) were purchased from Genscript (Piscataway, NJ, USA). pCMV6-XL4-PPARγ (human sequence) was purchased from Origene (Rockville, MD, USA).\nas §2"}, "IL-8": {"tested_on": "IL-8", "assay": "IL-8 mRNA expression by quantitative RT-PCR in porcine RPE cells", "type": "cell-based", "experimental": "as §1\nTotal RNA was extracted using the NucleoSpin® RNA kit according to manufacturer’s instructions. RT of 500 ng of RNA was performed using the SuperScript III Reverse Transcriptase following the manufacturer’s instructions. Five ng of cDNA were amplified using the SYBR GREEN real-time PCR method. PCR primers for target genes and housekeeping gene GAPDH were designed using Primer3Plus Bioinformatic software (Table 2). The RT-PCR using the StepOne Plus (Life Technologies, Carlsbad, CA, USA) consisted of incubation at 50°C for 5 min followed by 40 cycles of 95°C for 15 s and of 60°C for 1 min. The reaction was completed by a melt curve stage at 95°C for 15 s, 60°C for 1 min, 95°C for 15 s and a final step at 60°C for 15 s. The relative mRNA expression was calculated using the comparative threshold method (Ct-method) with GAPDH for normalization. All experimental conditions were processed in triplicate and each experiment was done at least 3 times."}, "CCL2": {"tested_on": "CCL2", "assay": "CCL2 mRNA expression by quantitative RT-PCR in porcine RPE cells", "type": "cell-based", "experimental": "as §1, with “All the drugs used in these experiments were prepared as stock solutions in DMSO.” left out\nTotal RNA was extracted using the NucleoSpin® RNA kit according to manufacturer’s instructions. […] The relative mRNA expression was calculated using the comparative threshold method (Ct-method) with GAPDH for normalization. […]"}}, "data": [{"smiles": "CC(C=CC1=C(C)CCCC1(C)C)=CC=CC(C)=Cc1cc(C=CC=C(C)C=CC2=C(C)CCCC2(C)C)cc[n+]1CCO", "note": "[A2E, N-retinylidene-N-retinylethanolamine]", "values": [{"measurement": "enhancement of VEGF mRNA expression by the compound alone", "setting": "VEGF; A2E 30 μM vs DMSO control", "result": "approximately 9 fold"}, {"measurement": "effect of the compound alone on ERK phosphorylation", "setting": "ERK; A2E 30 μM vs DMSO control", "result": "induced the phosphorylation"}, {"measurement": "minimal required concentration to transactivate all PPARs (endogenous)", "setting": "PPAR; dose-response, porcine RPE cells", "result": 20, "unit": "µM"}, {"measurement": "transactivation of over-expressed PPAR-β/δ by the compound alone", "setting": "PPAR-β/δ", "result": "induced the transactivation"}, {"measurement": "effect of the compound alone on IL-8 mRNA expression", "setting": "IL-8; vs DMSO control", "result": "induces the expression"}, {"measurement": "effect of the compound alone on CCL2 mRNA expression", "setting": "CCL2; A2E 30 μM vs DMSO control", "result": "up-regulated"}]}, {"smiles": "CC(/C=C/C=C(C)/C=C/C(=O)O)=C\\C=C\\C=C(C)\\C=C\\C=C(C)\\C=C\\C(=O)O", "note": "(stereo in doubt) [norbixin, 9’-cis-norbixin]", "values": [{"measurement": "effect on VEGF mRNA expression induced by A2E", "setting": "VEGF; NBX 20 μM with A2E 30 μM, MK886 1 μM, GSK3787 1 μM, T007907 10 μM, alone or as mixture, with A2E 20 μM", "result": "significantly inhibited"}, {"measurement": "effect on ERK phosphorylation induced by A2E", "setting": "ERK; NBX 20 μM + A2E 30 μM", "result": "not significantly inhibited"}, {"measurement": "inhibition of endogenous PPAR transactivation induced by A2E", "setting": "PPAR; A2E 20 μM, NBX 20 μM, HX531 5 μM (HX531 effect not significant)", "result": 52, "unit": "%"}, {"measurement": "effect of the compound alone on endogenous PPAR transactivation", "setting": "PPAR; NBX 20 μM, no A2E", "result": "did not inhibit"}, {"measurement": "effect on over-expressed PPAR-β/δ transactivation induced by A2E", "setting": "PPAR-β/δ; A2E 20 μM + NBX 20 μM", "result": "fully abolished"}, {"measurement": "inhibition of PPAR-β/δ transactivation induced by GW0742", "setting": "PPAR-β/δ; GW0742 at 1 nM, NBX 20 μM", "result": "did not inhibit significantly"}, {"measurement": "transactivation of over-expressed PPAR-β/δ by the compound alone", "setting": "PPAR-β/δ", "result": "did not demonstrate any transactivation activity"}, {"measurement": "inhibition of IL-8 mRNA expression induced by A2E", "setting": "IL-8; NBX 20 μM + A2E 30 μM", "result": "approximately 23 fold"}, {"measurement": "effect on CCL2 mRNA expression induced by A2E", "setting": "CCL2; NBX 20 μM + A2E 30 μM", "result": "further increased"}]}]}
